Values quoted from earlier work as cited in patent US20140100537A1 (MEDICURE INTERNATIONAL INC., priority 2009, published 2014).

System: platelet aggregation
Details: typical dosage for tirofiban

Structure (SMILES): CCCCS(=O)(=O)NC(Cc1ccc(OCCCCC2CCNCC2)cc1)C(=O)O.Cl (stereo not shown) [tirofiban]
- platelet inhibition provided by typical dosage: > 90%
